Laboratory results published in ChEMBL document CHEMBL1152371, “Effect of varying chain length between P(1) and P(1') position of tripeptidomimics on activity of angiotensin-converting enzyme inhibitors” (Bioorg Med Chem Lett, 2009).

target: T1, Angiotensin-converting enzyme (Oryctolagus cuniculus) (UniProt P12822); assay: Inhibition of rabbit lung ACE activity relative to control; set-up: concentration or dose not given beside the values; settings: concentration not given here
T1 sequence (whole entry): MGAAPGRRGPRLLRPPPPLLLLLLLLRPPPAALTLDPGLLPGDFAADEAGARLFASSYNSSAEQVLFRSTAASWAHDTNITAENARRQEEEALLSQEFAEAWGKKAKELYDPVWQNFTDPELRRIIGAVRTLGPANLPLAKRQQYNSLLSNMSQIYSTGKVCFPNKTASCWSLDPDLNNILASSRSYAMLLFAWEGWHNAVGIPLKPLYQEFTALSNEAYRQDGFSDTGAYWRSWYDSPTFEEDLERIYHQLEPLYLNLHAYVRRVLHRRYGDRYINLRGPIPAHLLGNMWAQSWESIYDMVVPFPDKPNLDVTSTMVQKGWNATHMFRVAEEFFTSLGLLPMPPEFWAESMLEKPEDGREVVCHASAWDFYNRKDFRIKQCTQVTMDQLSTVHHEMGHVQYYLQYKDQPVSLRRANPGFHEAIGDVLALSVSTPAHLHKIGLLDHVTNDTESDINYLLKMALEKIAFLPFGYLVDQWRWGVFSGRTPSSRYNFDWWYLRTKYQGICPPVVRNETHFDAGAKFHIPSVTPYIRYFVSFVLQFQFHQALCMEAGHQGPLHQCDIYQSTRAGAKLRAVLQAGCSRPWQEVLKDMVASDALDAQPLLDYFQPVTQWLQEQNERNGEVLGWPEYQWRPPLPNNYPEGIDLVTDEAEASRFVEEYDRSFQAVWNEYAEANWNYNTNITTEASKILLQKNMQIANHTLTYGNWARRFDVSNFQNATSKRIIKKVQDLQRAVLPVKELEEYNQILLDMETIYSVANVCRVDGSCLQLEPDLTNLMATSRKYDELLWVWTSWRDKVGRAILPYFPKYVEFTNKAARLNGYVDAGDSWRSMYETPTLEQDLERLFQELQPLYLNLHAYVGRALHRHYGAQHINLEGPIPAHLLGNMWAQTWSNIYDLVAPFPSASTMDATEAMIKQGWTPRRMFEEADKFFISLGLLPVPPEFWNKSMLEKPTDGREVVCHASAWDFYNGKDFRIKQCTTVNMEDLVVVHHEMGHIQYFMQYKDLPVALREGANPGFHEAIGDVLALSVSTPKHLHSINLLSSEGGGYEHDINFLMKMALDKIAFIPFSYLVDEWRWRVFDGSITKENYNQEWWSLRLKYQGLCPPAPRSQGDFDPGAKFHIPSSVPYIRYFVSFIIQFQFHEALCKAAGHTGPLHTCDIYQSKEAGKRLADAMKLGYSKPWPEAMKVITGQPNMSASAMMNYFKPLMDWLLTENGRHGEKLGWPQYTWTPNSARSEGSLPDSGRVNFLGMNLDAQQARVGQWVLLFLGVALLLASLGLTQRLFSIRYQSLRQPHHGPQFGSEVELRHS

In order of falling inhibition:
1. NCCC[C@H](NC(=O)CCc1ccsc1)C(=O)N1CCC[C@H]1C(=O)O  72.7%
2. NCCC[C@H](NC(=O)CCc1c[nH]c2ccccc12)C(=O)N1CCC[C@H]1C(=O)O  59.7%
3. NCCC[C@H](NC(=O)Cc1c[nH]c2ccccc12)C(=O)N1CCC[C@H]1C(=O)O  38.5%
4. NCCC[C@H](NC(=O)CCCc1ccsc1)C(=O)N1CCC[C@H]1C(=O)O  37.2%
5. NCCC[C@H](NC(=O)Cc1ccsc1)C(=O)N1CCC[C@H]1C(=O)O  35.6%
6. NCCC[C@H](NC(=O)CCCc1c[nH]c2ccccc12)C(=O)N1CCC[C@H]1C(=O)O  33.8%
7. NCCC[C@H](NC(=O)c1c[nH]c2ccccc12)C(=O)N1CCC[C@H]1C(=O)O  27.7%
8. NCCC[C@H](NC(=O)c1ccsc1)C(=O)N1CCC[C@H]1C(=O)O  23.7%
